Results published in patent publication US20220395468A1, “Transdermal Drug Delivery Systems for Administration of a Therapeutically Effective Amount of Lenalidomide and Other Immunomodulatory Agents” (Starton Therapeutics, Inc., priority 2021, published 2022).
Like-named read-outs stand apart in the source and are kept apart here.

Key:
[1] = Procedure: Next, the solubility of lenalidomide H1 was determined in silicone polymer-based pressure sensitive adhesives and acrylic polymer-based pressure sensitive adhesives. Pressure sensitive adhesive polymers are the major component of the pressure sensitive adhesives matrix patches and typically constitute 50%-85% of the formulation.
[2] = FIG. 10
Procedure: In vitro permeability of lenalidomide through human cadaver skin was conducted using in vitro franz diffusion cells to identify potential permeation enhancers for lenalidomide. Donor compartment was loaded with Lenalidomide solution or gel.
Lenalidomide H1 solutions were prepared in following different solvents Lactic acid, Dimethyl sulfoxide, NMP, Levulinic acid, Super refined PEG 400, Tween 40, Polysorbate 80.
Lenalidomide gels were prepared using a following solvent system composition (Table 7). Gels were made with 10 different permeation enhancers.

Remark: listed apart in the source
[3] = cited from earlier work
[4] = cited from earlier work; remark: listed apart in the source
[5] = people with high-risk SMM, oral; cited from earlier work

## Nc1cccc2c1CN(C1CCC(=O)NC1=O)C2=O (stereo not drawn) [Lenalidomide H1]
[1]; in BIO-PSA 7-4202 (silicone PSA)
  Lenalidomide H1 solubility: Less than 0.5% W/W
[1]; in Duro-Tak 87-2052 (acrylic PSA)
  Lenalidomide H1 solubility: Less than 0.5% W/W
[1]; in Duro-Tak 87-2074 (acrylic PSA)
  Lenalidomide H1 solubility: Less than 0.5% W/W
[1]; in Duro-Tak 87-2194 (acrylic PSA)
  Lenalidomide H1 solubility: Less than 0.5% W/W
[1]; in Duro-Tak 87-2516 (acrylic PSA)
  Lenalidomide H1 solubility: approximately 0.5% W/W
[1]; in Duro-Tak 87-2852 (acrylic PSA)
  Lenalidomide H1 solubility: Less than 0.5% W/W
[1]; in Duro-Tak 87-4098 (acrylic PSA)
  Lenalidomide H1 solubility: Less than 0.5% W/W
[1]; in Duro-Tak 87-9301 (acrylic PSA)
  Lenalidomide H1 solubility: Less than 0.5% W/W
[2]; solution in Lactic acid
  rate of lenalidomide permeation: highest rate
[2]; solution in Levulinic acid
  rate of lenalidomide permeation: negligible permeation
[2]; solutions in NMP and DMSO
  rate of lenalidomide permeation: followed by NMP and DMSO
[2]; solutions in SR PEG 400, TWEEN 40, Polysorbate 80
  rate of lenalidomide permeation: insignificant to no permeation
Aquasolve HPMC-AS MF (0.25 G) + Solvent system Acetone:Methanol (1:1)
  Solubility: 1.2 % W/W
Eudragit + Solvent system Acetone:Methanol (1:1)
  Solubility: 0.9 % W/W
Kollidon 30 (0.5 G) + Solvent system Acetone:Methanol (1:1)
  Solubility: 2.2 % W/W
Kollidon 90 F (0.5 G) + Solvent system Acetone:Methanol (1:1)
  Solubility: 2.0 % W/W
Kollidon VA 64 (0.5 G) + Solvent system Acetone:Methanol (1:1)
  Solubility: 2.1 % W/W
Kollisolv P124 Geismer (0.27 G) + Solvent system Acetone:Methanol (1:1)
  Solubility: 0.9 % W/W
In Acetone
  Solubility: 0.2 % W/W
In Acetonitrile
  Solubility: 0.3 % W/W
In Dimethyl sulfoxide
  Solubility: 20.7 % W/W
In Ethanol 190 Proof
  Solubility: 0.2 % W/W
In Ethyl acetate
  Solubility: <0.1 % W/W
In Heptane
  Solubility: <0.1 % W/W
In Isooctadecanoic acid
  Solubility: <0.1 % W/W
In Lactic acid
  Solubility: 9.3 % W/W
In Lauryl Lactate
  Solubility: 0.1 % W/W
In Levulinic acid
  Solubility: 5.5 % W/W
In Methanol
  Solubility: 0.3 % W/W
In Methanol:Acetone (1:1)
  Solubility: 0.9 % W/W
In Methyl Laurate
  Solubility: <0.1 % W/W
In NMP
  Solubility: 29.3 % W/W
In Propylene Glycol
  Solubility: 0.4 % W/W
In Propylene Glycol monolaurate
  Solubility: <0.1 % W/W
In Super refined PEG 400
  Solubility: 1.6 % W/W
In Toluene
  Solubility: <0.1 % W/W

## Nc1cccc2c1CN(C1CCC(=O)NC1=O)C2=O (stereo not drawn) [Lenalidomide, 3-(4-amino-1-3-dihydro-1-oxo-2H-isoindol-2yl)-2,6-piperidinedione]
In DMSO, room temperature
  Solubility: 10-20%
In NMP, room temperature
  Solubility: about 30 % w/w
In esters
  Solubility: less than 0.5%
In glycols
  Solubility: less than 2%
In two organic acids, Lactic acid and levulinic acid
  Solubility: more than 5%
[3]
  solubility of the LLD in solution: 400 to 500 µg/mL
[4]
  log P: −0.4
[5]
  discontinued due to drug-related side effects: 40%
  three-year progression-free survival: 91%
